Laboratory results published in PMC4667280, “Crystal structure of FadD32, an enzyme essential for mycolic acid biosynthesis in mycobacteria” (Scientific Reports, 2015).

Molecular target: T1, MsFadD32 (full-length FadD32 from M. smegmatis) (Mycolicibacterium smegmatis, UniProt A0R618)
T1 construct: full-length (N-terminal domain 1-483, C-terminal domain 484-630), expressed in E. coli BL21(DE3) as SUMO (SMT3) fusion; crystal of the SUMO fusion
T1 sequence (A0R618 1-630): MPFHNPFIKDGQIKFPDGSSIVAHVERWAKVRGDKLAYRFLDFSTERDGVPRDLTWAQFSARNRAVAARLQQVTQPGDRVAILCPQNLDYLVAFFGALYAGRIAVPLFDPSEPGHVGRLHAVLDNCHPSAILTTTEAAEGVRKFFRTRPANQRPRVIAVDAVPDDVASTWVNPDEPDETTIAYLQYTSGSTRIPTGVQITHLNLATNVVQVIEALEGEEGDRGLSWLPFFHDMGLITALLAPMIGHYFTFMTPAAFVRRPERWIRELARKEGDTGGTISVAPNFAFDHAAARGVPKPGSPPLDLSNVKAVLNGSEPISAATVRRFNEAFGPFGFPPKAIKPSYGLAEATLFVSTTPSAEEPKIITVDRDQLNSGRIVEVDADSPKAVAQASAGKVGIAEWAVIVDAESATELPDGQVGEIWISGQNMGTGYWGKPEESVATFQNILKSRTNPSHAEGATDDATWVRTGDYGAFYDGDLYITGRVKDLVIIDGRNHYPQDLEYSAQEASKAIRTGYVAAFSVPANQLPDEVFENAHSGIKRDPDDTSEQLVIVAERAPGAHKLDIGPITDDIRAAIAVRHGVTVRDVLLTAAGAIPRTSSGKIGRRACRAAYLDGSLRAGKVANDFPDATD
Test: isothermal titration calorimetry; crystal structure of the complex at […] Å
Assay type: binding

SMILES: Nc1ncnc2c1ncn2[C@@H]1O[C@H](COP(=O)(O)OP(=O)(O)OP(=O)(O)O)[C@@H](O)[C@H]1O [ATP]
- Kd: ~36 µM
